Laboratory results from patent US20100183527A1, “Cosmetic Compositions Comprising Sclareolide and Hesperidin Methyl Chalcone” (COGNIS IP MANAGEMENT GMBH, priority 2007, published 2010).

Columns and labels:
Type in all cases: cell-based
[1] = test system: Melanocytes (B16 cell line); test: Melanogenesis stimulation assay for combination, level of intracellular melanin (optical density at 475 nm); conditions: for rate of melanin: mean +/- SEM
Description: (§1) Melanocytes (B16 cell line) were inoculated in standard medium of cell culture with foetal calf serum (FCS). After an incubation for 3 days at 37° C. and CO2=5%, growth medium was exchanged for standard medium with a range of concentrations for each active ingredient to be tested and a control without ingredient. Combinations of active ingredients were tested on the same cultures, in parallel with active ingredients alone. After an incubation of 3 days, the cells were washed by a balanced salt solution, and homogenised in a solution of 0.1 M NaOH. The number of viable cells was determined by evaluation of the level of cellular proteins (Bradford's method) and the level of intracellular melanin was measured by recording the optical density at 475 nm.
(§2) The results are expressed in % against control (cell culture medium without compound) as a mean+/−SEM (Standard Error of Mean) on 5 assays, each in triplicate.

[2] = test system: Melanocytes (B16 cell line); test: Melanogenesis stimulation assay, level of melanin (optical density at 475 nm); conditions: 3 days incubation, mean +/- SEM
Description: (§3) Melanocytes (B16 cell line) were inoculated in standard medium of cell culture with foetal calf serum (FCS). After an incubation of 3 day at 37° C. and CO2=5%, growth medium was exchanged for standard medium with a range of concentrations for each active ingredient to be tested and a control without ingredient. After an incubation of 3 days, the level of melanin was measured by recording the optical density at 475 nm. After washing the cells by a balanced salt solution, and homogenisation in a solution of 0.1 M NaOH, the number of viable cells was determined by evaluation of the level of cellular proteins (Bradford's method). The results are expressed in % against control (cell culture medium without compound) as a mean+/−SEM (Standard Error of Mean) on 2 or 3 assays, each in triplicate.

[3] = test system: Melanocytes (B16 cell line); test: Number of viable cells by level of cellular proteins (Bradford's method), Example 1; conditions: 3 days incubation, mean +/- SEM
Description: as §3

[4] = test system: Melanocytes (B16 cell line); test: Number of viable cells by level of cellular proteins (Bradford's method), Example 2 combination; conditions: for Amount of cellular proteins: mean +/- SEM
Description: as §1, §2

[5] = Sclareolide 0.000025 % (w/v) alone
[6] = Sclareolide 0.000050 % (w/v) alone

CC1(C)CCC[C@]2(C)[C@H]3CC(=O)O[C@]3(C)CC[C@@H]12 [Sclareolide, (3aR,5aS,9aS,9bR)— decahydro-3a,6,6,9a-tetramethyl naphtho(2,1-b)furan-2(1H)-one]
rate of melanin [1, 5]: 116 +/− 7 %/control
rate of melanin [1, 6]: 120 +/− 6 %/control
rate of melanin synthesis / efficacy (in words) ([1]; very low doses (Table 2)): increased the rate of melanin synthesis
Melanin level ([2]; Dose 0.0003 % (w/v)): 174 +/− 55 %/control
Melanin level ([2]; Dose 0.001 % (w/v)): 286 +/− 83 %/control
Protein level (rate of cellular proteins) ([3]; Dose 0.0003 % (w/v)): 89 +/− 11 %/control
Protein level (rate of cellular proteins) ([3]; Dose 0.001 % (w/v)): 83 +/− 17 %/control
Amount of cellular proteins [4, 5]: 97 +/− 18 %/control
Amount of cellular proteins [4, 6]: 106 +/− 10 %/control
toxic effects, decrease of amount of cellular proteins (in words) ([4]; concentrations of Table 3, tested separately or mixed): do not show any toxic effects
